Assay [1] concerns the target T1, GST-TLR2 intracellular TIR domain fusion protein (Homo sapiens, UniProt O60603).
T1 construct: GST and TIR domain of TLR2; made in house; host or cells: Escherichia coli
As to the kind of experiment: Pull-down of GST fusion protein-bound beads with ^3H-compound A, SDS-PAGE, autoradiography. The class given is binding. Conditions: beads reacted at 4° C. overnight; autoradiography (FIG. 1B). The procedure:
(§1) Using the above-mentioned primer DNA and TAKARA Ex Taq and after first standing at 95° C. for 2 min in a thermal cycler, PCR was performed 30 cycles with 95° C. for 30 sec, at 55° C. for 30 sec and at 72° C. for 1 min as one cycle. Lastly, an elongation reaction was performed at 72° C. for 10 min. The amplified DNA fragment was cloned using a TA Cloning Kit (Invitrogen). The obtained plasmid vector was treated with a restriction enzyme and electrophoresed on agarose gel. The band was cleaved out using a Sephaglas B and Prep Kit (Amersham) and purified. This was inserted as an insert into vector plasmid pGEX-4T-1 (Amersham) using DNA ligation kit Ver.2 (TAKARA).
(§2) Escherichia coli was transformed with the completed plasmid, and cultured in LB medium containing ampicillin (10 mL) at 37° C. for 18 hr. Culture medium (2.4 mL) was inoculated to LB medium containing ampicillin (130 mL), and subjected to shaking culture. When OD600 became amount 0.9, isopropyl-β-D-thiogalactopyranoside (1 mol/L) was added (130 μL), and the mixture was cultivated at 30° C. for 4 hr. After cultivation, the cells were collected and 10 mL of Lysis Buffer (10 mmol/L Tris pH 7.5, […], 0.5% triton-X-100, 1 mmolp/L PMSF) was added. The cells were disrupted by ultrasonication and centrifuged. To the obtained supernatant was added Glutathione Sepharose 4B (Amersham, 300 μL), and the mixture was gently shaken at 4° C. for 60 min. After the reaction, GST fusion protein-bound beads were washed with TBS (Tris buffered saline, 50 mM Tris-HCl pH7.5, 150 mM NaCl) added with 0.1% Triton X-100.
(§3) The completed GST fusion protein-bound beads and ^3H-compound A (synthesized by Amersham) were reacted at 4° C. overnight. After the reaction, the beads were washed with 0.1% Triton X-100 added TBS, a sample buffer for 5% 2-mercaptoethanol (ME)-containing sodium dodecyl sulfate (SDS)-polyacrylamide gel electrophoresis (PAGE) was added, and the mixture was heated at 100° C. for 5-10 min. The mixture was centrifuged, the supernatant was separated as a labeled protein sample, and the protein was separated by SDS-PAGE. […]

The target in assay [2] is T2, GST-TIRAP fusion protein (Homo sapiens, UniProt P58753).
T2 construct: made in house; host or cells: Escherichia coli
The assay is described as above. The class given is binding. The note with it: beads reacted at 4° C. overnight; autoradiography (FIG. 1B). How it is done: as §1, §2, §3

Assay [3] deals with T3, GST-TLR4 intracellular TIR domain fusion protein (Homo sapiens, UniProt O00206).
T3 construct: made in house; host or cells: Escherichia coli
T3 sequence (O00206 674-839): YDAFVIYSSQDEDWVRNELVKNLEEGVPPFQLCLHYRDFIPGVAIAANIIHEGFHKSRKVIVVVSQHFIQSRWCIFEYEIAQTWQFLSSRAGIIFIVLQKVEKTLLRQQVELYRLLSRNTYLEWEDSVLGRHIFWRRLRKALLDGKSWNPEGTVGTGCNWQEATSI
Described as above. The format is binding. Conditions: beads reacted at 4° C. overnight; autoradiography (FIG. 1B). How it is done: as §1, §2, §3

Assay [4] deals with T4, TLR4 (wild-type and point mutants, TLR4 C747A) (Homo sapiens, UniProt O00206, C747A). As to the kind of experiment: Binding of ^3H-compound A to FLAG-TLR4 wild-type and point mutants expressed in COS-7 cells (anti-FLAG immunoprecipitation, autoradiography). Details: expressed in transfected cells. The note with it: 100 nmol/L, 6 hr, COS-7 cells; only this mutant among 1CA-4CA, PH, 1KR-9KR (FIG. 2). The text has this: (§4) cDNA encoding TLR4 was obtained by a conventional method using PCR, and incorporated into expression vector pEFBos. Each point mutant was produced using QuikChange II Site-directed Mutagenesis Kit (manufactured by Stratagene). A mismatch corresponding to a mutation was introduced into both ends of a primer according to the manual of the kit. The produced primers are as follows (mutant introduction sites are underlined). Thereafter, a mutant was produced according to the manual and a competent cell was transformed therewith. Single colonies were picked up, a plasmid was prepared according to a conventional method and DNA sequence was confirmed to give a plasmid containing each mutant TLR4.
(§5) Escherichia coli was transformed with the produced plasmids, about 500-700 μg thereof was each purified using EndoFree (R) Plasmid Maxi Kit (Quiagen). […]
(§6) The immunoprecipitated was applied to SDS-PAGE to separate the protein, and the gel after migration was immersed in a blotting buffer for 15 min to remove SDS. […] The luminescence of the band was photographed on an X ray film, Kodak Biomax-MS, and the protein expression level was confirmed (FIG. 2; the upper panel). The photographed PVDF membrane was washed with PBS-T, photosensitized on imaging plate TR-2040 for 7 days, and the amount of ^3H bound to the expressed protein was measured using BAS-2500 (FUJIFILM Corporation).

Assay [5] concerns the target T5, TLR4 (wild-type and point mutants, TLR4 C747A) (Homo sapiens, UniProt O00206). Described as above. Also noted: expressed in transfected cells. The note with it: concluded from mutant binding, COS-7 cells (FIG. 2).
Description: as §4, §5, §6

Assay [6] deals with T4, TLR4 (wild-type and point mutants, TLR4 C747A). Briefly: NF-κB luciferase reporter assay in HEK293 cells expressing wild-type or mutant TLR4 after LPS stimulation. The format is cell-based. Also noted: expressed in transfected cells; host or cells: HEK293 (human embryonic kidney). The note with it: 0, 30, 100, 300 nmol/L, 2 hr, then LPS 100 ng/mL 4 hr; HEK293; FL/RL ratio; only this mutant (FIG. 3). The procedure:
(§7) Human embryonic kidney-derived HEK293 was suspended in DMEM containing 10% FCS, plated in a 96 well plate at 2×10^4 cells/well and cultured overnight at 37° C., 5% CO2. The medium was changed to OPTI-MEM (Invitrogen, 50 μL/well) immediately before transfection. A plasmid encoding FLAG-TLR4WT or a mutant thereof (0CA-3CA, PH, 1KR-9KR) was added to 0.5 ng/well, and transfection was performed using a PLUS reagent (Invitrogen) or a LipofectAMINE reagent (Invitrogen) according to a conventional method. The cells were cultured at 37° C., 5% CO2 for 3 hr. After culture, DMEM containing 20% FCS was added to 100 μL/well, and the cells were further cultured overnight to give forced expression cells. As common DNAs, pNiFty (plasmid for NF-κB activation measurement, 15 ng/well), phRL-TK (internal standard plasmid, 15 ng/well), MD-2 plasmid (10 ng/well) and CD14 plasmid (10 ng/well) were transfected together with wild-type TLR4 and each mutant.
(§8) The next day of the transfection, the medium of the forced expression cells was changed to DMEM containing 1% FCS, compound A (ethyl (6R)-6-[N-(2-chloro-4-fluorophenyl)sulfamoyl]-1-cyclohexene-1-carboxylate), compound B (d-ethyl 6-[N-(2,4-difluorophenyl)sulfamoyl]-1-cyclohexene-1-carboxylate), compound C (ethyl 6-[N-(2-bromo-4-fluorophenyl)sulfamoyl]-1-cyclohexene-1-carboxylate), compound D (d-ethyl 6-[(2-chloro-4-fluorobenzyl)sulfonyl]-1-cyclohexene-1-carboxylate) were added to the final concentration of 0, 30, 100, 300 nmol/L and the cells were cultured for 2 hr at 37° C., 5% CO2. LPS was added to 100 ng/mL, and the cells were further cultured for 4 hr. After culture, the luminescence of luciferase was measured using Dual-Glo™ Luciferase Assay System (Promega). For the measurement, the luminescence of firefly luciferase (derived from FL, NF-κB activation) and renilla luciferase (RL, internal standard) was measured, and CPS (counts per second) of FL was amended by CPS of RL to give FL/RL ratio.

Assay [7] addresses T5, TLR4 (wild-type and point mutants, TLR4 C747A). Described as above. The format is cell-based. Details: expressed in transfected cells; host or cells: HEK293 (human embryonic kidney). The note with it: concluded from reporter assay with TLR4 mutants, HEK293 (FIG. 3). How it is done:
as §7, §8
In general terms: A reporter such as luciferase makes a cellular process visible.

T4 sequence (O00206 24-839 C747A): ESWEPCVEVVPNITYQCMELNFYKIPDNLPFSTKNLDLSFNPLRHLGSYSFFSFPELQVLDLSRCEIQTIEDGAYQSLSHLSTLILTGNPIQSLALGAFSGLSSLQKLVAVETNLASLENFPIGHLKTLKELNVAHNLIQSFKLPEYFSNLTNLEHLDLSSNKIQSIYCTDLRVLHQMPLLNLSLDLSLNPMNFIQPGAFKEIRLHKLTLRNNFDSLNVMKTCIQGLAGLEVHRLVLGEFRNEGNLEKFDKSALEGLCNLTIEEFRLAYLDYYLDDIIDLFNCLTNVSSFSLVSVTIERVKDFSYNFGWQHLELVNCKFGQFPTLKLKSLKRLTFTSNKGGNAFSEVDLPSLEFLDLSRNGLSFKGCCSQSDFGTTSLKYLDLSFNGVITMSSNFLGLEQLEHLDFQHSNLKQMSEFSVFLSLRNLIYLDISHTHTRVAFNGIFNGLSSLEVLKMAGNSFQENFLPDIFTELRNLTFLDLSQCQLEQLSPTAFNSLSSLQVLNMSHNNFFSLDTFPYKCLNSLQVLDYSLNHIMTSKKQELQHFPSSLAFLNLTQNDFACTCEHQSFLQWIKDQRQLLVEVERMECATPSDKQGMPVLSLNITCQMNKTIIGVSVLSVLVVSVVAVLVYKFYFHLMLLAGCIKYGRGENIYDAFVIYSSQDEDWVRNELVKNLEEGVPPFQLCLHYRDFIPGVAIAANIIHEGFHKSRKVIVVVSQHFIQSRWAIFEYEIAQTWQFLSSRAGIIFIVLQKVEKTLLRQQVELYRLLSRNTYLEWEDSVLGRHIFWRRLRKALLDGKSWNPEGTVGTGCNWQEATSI
T5 sequence (O00206 24-839 C747A): as above
T2 sequence (P58753 1-235 isoform P58753-2): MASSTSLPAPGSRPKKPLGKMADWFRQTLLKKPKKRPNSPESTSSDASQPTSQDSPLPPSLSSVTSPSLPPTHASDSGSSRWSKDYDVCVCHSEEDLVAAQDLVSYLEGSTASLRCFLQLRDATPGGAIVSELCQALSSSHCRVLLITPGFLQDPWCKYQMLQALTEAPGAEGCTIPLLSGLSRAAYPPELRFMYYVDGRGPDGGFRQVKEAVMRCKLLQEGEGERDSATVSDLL
T1 sequence (O60603 639-782 limits assumed): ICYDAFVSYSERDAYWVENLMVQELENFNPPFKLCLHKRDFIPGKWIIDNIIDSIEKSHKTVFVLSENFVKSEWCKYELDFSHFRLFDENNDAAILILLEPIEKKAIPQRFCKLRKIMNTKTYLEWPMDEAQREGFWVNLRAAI

Take `CCOC(=O)C1=CCCC[C@H]1S(=O)(=O)Nc1ccc(F)cc1Cl` [compound A, ethyl (6R)-6-[N-(2-chloro-4-fluorophenyl)sulfamoyl]-1-cyclohexene-1-carboxylate]: the “binding of ^3H-compound A to GST-TLR2 intracellular TIR domain fusion protein” value in assay [1] is listed as “not bound”. For the same compound, the “binding of ^3H-compound A to GST-TIRAP fusion protein” value in assay [2] is reported as “not bound”. Also, the “binding of ^3H-compound A to GST-TLR4 intracellular TIR domain fusion protein” value in assay [3] is reported as “selectively bound”. For the same compound, the “binding amount of ^3H-compound A to TLR4 with 747th cysteine mutated to alanine” value in assay [4] is reported as “remarkably decreased”. The “binding site of compound A in TLR4” value in assay [5] is reported as “selectively bound to the 747th cysteine”. Moreover, in assay [6], the “signal suppressing action when 747th cysteine of TLR4 mutated to alanine” value (“signal suppressing action” for short) was “disappeared”. Moreover, in assay [7], the “binding site in TLR4 through which the signal is suppressed” value is “selectively bind to the 747th cysteine”.

Regarding `CCOC(=O)C1=CCCCC1S(=O)(=O)Nc1ccc(F)cc1F` (stereo not drawn) [compound B, d-ethyl 6-[N-(2,4-difluorophenyl)sulfamoyl]-1-cyclohexene-1-carboxylate], the “signal suppressing action” value in assay [6] was “disappeared”. For the same compound, in assay [7], the “binding site in TLR4 through which the signal is suppressed” value is listed as “selectively bind to the 747th cysteine”.

As to `CCOC(=O)C1=CCCCC1S(=O)(=O)Nc1ccc(F)cc1Br` (stereo not shown) [compound C, ethyl 6-[N-(2-bromo-4-fluorophenyl)sulfamoyl]-1-cyclohexene-1-carboxylate], the “signal suppressing action” value in assay [6] is “disappeared”. Also, the “binding site in TLR4 through which the signal is suppressed” value in assay [7] is recorded as “selectively bind to the 747th cysteine”.

With `CCOC(=O)C1=CCCCC1S(=O)(=O)Cc1ccc(F)cc1Cl` (stereo not drawn) [compound D, d-ethyl 6-[(2-chloro-4-fluorobenzyl)sulfonyl]-1-cyclohexene-1-carboxylate], the “signal suppressing action” value in assay [6] is given as “disappeared”. Also, the “binding site in TLR4 through which the signal is suppressed” value in assay [7] was “selectively bind to the 747th cysteine”.
